Reference: patent US12415819B2, “Cu- and Ni-catalyzed decarboxylative borylation reactions” (The Scripps Research Institute, priority 2017, dated 2025)
≈ marks a conversion by molar mass, not a printed value.

How the values were obtained:
Test in all cases: Antibiotic susceptibility, broth microdilution
Assay type in all cases: cell-based
[1] = system: Staphylococcus aureus (ATCC 25923); conditions: growth observed at 20 h; unit assumed
Protocol: (§1) Antibiotic susceptibilities were determined using the Clinical and Laboratory Standards Institute broth microdilution method (63). Briefly, antibiotics were prepared as 2-fold dilutions in 96-well plates containing cation-adjusted Mueller-Hinton broth (S. aureus strains) or brain-heart infusion broth (Enterococcus strains). Stock solutions of antibiotics were made in dimethyl sulfoxide (DMSO). […]

[2] = system: Staphylococcus aureus (methicillin resistant, ATCC 43300); conditions: MRSA; growth observed at 20 h; unit assumed
Protocol: as §1

[3] = system: Enterococcus faecalis (VanA, BM4166); conditions: growth observed at 20 h, unit assumed
Protocol: as §1

[4] = system: Enterococcus faecalis (Van B, ATCC 51299); conditions: growth observed at 20 h, unit assumed
Protocol: as §1

[5] = system: Enterococcus faecium (Van A, ATCC BAA-2317); conditions: growth observed at 20 h; unit assumed
Protocol: as §1

SMILES	MIC [1]	MIC [2]	MIC [3]	MIC [4]	MIC [5]
CN[C@@H](CC(C)C)C(=O)N[C@H]1C(=O)N[C@@H](CC(N)=O)C(=O)N[C@H]2CN[C@H]3C(=O)N[C@H](C(=O)N[C@@H](C(=O)O)c4cc(OC)cc(OC)c4-c4cc3ccc4OC)[C@H](O)c3ccc(c(Cl)c3)Oc3cc2cc(c3OC)Oc2ccc(cc2Cl)[C@H]1O (atropisomer, axis not shown) [Compound 43]	2 µg/mL (≈ 1.69 µM)	2 µg/mL (≈ 1.69 µM)	> 64 µg/mL	8 µg/mL (≈ 6.74 µM)	> 64 µg/mL
CN[C@H](CC(C)C)C(=O)N[C@H]1C(=O)N[C@@H](CC(N)=O)C(=O)N[C@H]2C(=O)N[C@H]3C(=O)N[C@H](C(=O)N[C@H](C(=O)O)c4cc(O)cc(O)c4-c4cc3ccc4O)[C@H](O)c3ccc(c(Cl)c3)Oc3cc2cc(c3O)Oc2ccc(cc2Cl)[C@H]1O [vancomycin aglycon]	1 µg/mL (≈ 0.874 µM)	1 µg/mL (≈ 0.874 µM)	> 64 µg/mL	32 µg/mL (≈ 28 µM)	> 64 µg/mL
CN[C@H](CC(C)C)C(=O)N[C@H]1C(=O)N[C@@H](CC(N)=O)C(=O)N[C@H]2C(=O)N[C@H]3C(=O)N[C@H](C(=O)N[C@H](C(=O)O)c4cc(O)cc(O)c4-c4cc3ccc4O)[C@H](O)c3ccc(c(Cl)c3)Oc3cc2cc(c3O[C@@H]2O[C@H](CO)[C@@H](O)[C@H](O)[C@H]2O[C@H]2C[C@](C)(N)[C@H](O)[C@H](C)O2)Oc2ccc(cc2Cl)[C@H]1O [vancomycin]	0.5 µg/mL (≈ 0.345 µM)	0.5 µg/mL (≈ 0.345 µM)	> 64 µg/mL	16 µg/mL (≈ 11 µM)	> 64 µg/mL
